28 molecules from US20250333424A1, “ANTIVIRAL COMPOUNDS” (Gilead Sciences, Inc., priority 2024, published 2025) can be followed below.

Assay [1] relates to monocytic THP1 cells infected with HIV VSV-G pseudotyped GFP-NEF reporter virus. The experiment in a line: cells. The assay is classed as cell-based. The conditions noted are these: Human immunodeficiency virus 1, THP-1, 24 h.
Assay [2] deals with CD4 cells, isolated from healthy donor PMBCs, infected with HIV VSV-G pseudotyped GFP-GAG reporter virus. The experiment in a line: tissue or blood. The assay is classed as cell-based. The conditions noted are these: Homo sapiens, 72 h.

In the case of `Cc1cc(/C=C/C#N)cc(C)c1Oc1nc(NC23CC(C#N)(C2)C3)nc2cnn(C)c12` [Compound 122], the EC50 is 54 nM in assay [1] and 47.3 nM in assay [2].

For `Cc1cc(/C=C/C#N)cc(C)c1Oc1nc(NC23CC(C#N)(C2)C3)nc2nc(C3CCC3)[nH]c12` [Compound 50, (E)-3-((6-(4-(2-cyanovinyl)-2,6-dimethylphenoxy)-8-cyclobutyl-7H-purin-2-yl)amino)bicyclo[1.1.1]pentane-1-carbonitrile], the EC50 in assay [1] stood at 166 nM; in assay [2], 151 nM.

`Cc1cc(/C=C/C#N)cc(Cl)c1Oc1nc(NC23CC(C#N)(C2)C3)nc2[nH]nc(C)c12` [Compound 85, (E)-3-((4-(2-chloro-4-(2-cyanovinyl)-6-methylphenoxy)-3-methyl-1H-pyrazolo[3,4-d]pyrimidin-6-yl)amino)bicyclo[1.1.1]pentane-1-carbonitrile] displayed an EC50 in assay [2] of 20.9 nM.

Regarding `Cc1cc(/C=C/C#N)cc(C)c1Oc1nc(NC23CC(C#N)(C2)C3)nc2nc(C(C)(C)O)[nH]c12` [Compound 60, (E)-3-((6-(4-(2-cyanovinyl)-2,6-dimethylphenoxy)-8-(2-hydroxypropan-2-yl)-7H-purin-2-yl)amino)bicyclo[1.1.1]pentane-1-carbonitrile], the EC50 in assay [1] came to 373 nM; in assay [2] it was 175 nM.

Consider `Cc1cc(/C=C/C#N)cc(C)c1Oc1nc(NC23CC(C#N)(C2)C3)nc2[nH]nnc12` [Compound 80, €-3-((7-(4-(2-cyanovinyl)-2,6-dimethylphenoxy)-3H-[1,2,3]triazolo[4,5-d]pyrimidin-5-yl)amino)bicyclo[1.1.1]pentane-1-carbonitrile], for which the figures for the EC50 in assay [1] and in assay [2] were 593 nM and 551 nM, respectively.

For `Cc1cc(/C=C/C#N)cc(C)c1Oc1nc(NC23CC(C#N)(C2)C3)nc2c1CN(C)C2` [Compound 150, (E)-3-((4-(4-(2-cyanovinyl)-2,6-dimethylphenoxy)-6-methyl-6,7-dihydro-5H-pyrrolo[3,4-d]pyrimidin-2-yl)amino)bicyclo[1.1.1]pentane-1-carbonitrile], the EC50 turned out to be 99.2 nM in assay [1] and 110 nM in assay [2].

In the case of `Cc1cc(/C=C/C#N)cc(C)c1Oc1nc(NC23CC(C#N)(C2)C3)nc2c1C[N+](C)(C)C2` [Compound 152, (E)-2-((3-cyanobicyclo[1.1.1]pentan-1-yl)amino)-4-(4-(2-cyanovinyl)-2,6-dimethylphenoxy)-6,6-dimethyl-6,7-dihydro-5H-pyrrolo[3,4-d]pyrimidin-6-ium], in assay [2], the EC50 stood at 3360 nM.

As to `Cc1cc(/C=C/C#N)cc(C)c1Oc1nc(NC23CC(C4COC4)(C2)C3)nc2[nH]nc(C)c12` [Compound 154, (E)-3-(3,5-dimethyl-4-((3-methyl-6-((3-(oxetan-3-yl)bicyclo[1.1.1]pentan-1-yl)amino)-1H-pyrazolo[3,4-d]pyrimidin-4-yl)oxy)phenyl)acrylonitrile], the EC50 in assay [1] was found to be 235 nM; in assay [2], 324 nM.

In assay [2], `Cc1cc(/C=C/C#N)cc(C)c1Oc1nc(NC23CC(C#N)(C2)C3)nc2c1CSC2` [Compound 116, (E)-3-((4-(4-(2-cyanovinyl)-2,6-dimethylphenoxy)-5,7-dihydrothieno[3,4-d]pyrimidin-2-yl)amino)bicyclo[1.1.1]pentane-1-carbonitrile] gave an EC50 of 63.3 nM.

In the case of `Cc1cc(/C=C/C#N)cc(C)c1Oc1nc(NC23CC(C#N)(C2)C3)nc2nc[nH]c12` [Compound 44, (E)-3-((6-(4-(2-cyanovinyl)-2,6-dimethylphenoxy)-7H-purin-2-yl)amino)bicyclo[1.1.1]pentane-1-carbonitrile], in assay [2], the EC50 was 109 nM. This EC50 is about 1.7-fold higher than that of the molecule before.

`Cc1cc(/C=C/C#N)cc(C)c1Oc1nc(NC23CC(C#N)(C2)C3(F)F)nc2c1CCO2` [Compound 78, (E)-3-((4-(4-(2-cyanovinyl)-2,6-dimethylphenoxy)-5,6-dihydrofuro[2,3-d]pyrimidin-2-yl)amino)-2,2-difluorobicyclo[1.1.1]pentane-1-carbonitrile] showed an EC50 in assay [2] of 12.1 nM.

Turning to `Cc1cc(/C=C/C#N)cc(C)c1Oc1nc(NC23CC(C#N)(C2)C3)nc2ncn(CC(F)(F)F)c12` [Compound 106, (E)-3-((6-(4-(2-cyanovinyl)-2,6-dimethylphenoxy)-7-(2,2,2-trifluoroethyl)-7H-purin-2-yl)amino)bicyclo[1.1.1]pentane-1-carbonitrile], the figures for the EC50 in assay [1] and in assay [2] were 216 nM and 237 nM, respectively.

On to `Cc1cc(/C=C/C#N)cc(C)c1Oc1nc(NC23CC(C#N)(C2)C3)nc2nn(C)cc12` [Compound 120, 3-[[4-[4-[(E)-2-cyanovinyl]-2,6-dimethyl-phenoxy]-2-methyl-pyrazolo[3,4-d]pyrimidin-6-yl]amino]bicyclo[1.1.1]pentane-1-carbonitrile], for which the results for the EC50 in assay [1] and in assay [2] were 21.1 nM and 22.9 nM, respectively.

In the case of `Cc1cc(/C=C/C#N)cc(C)c1Oc1nc(NC23CC(C#N)(C2)C3)nc2[nH]c(=O)[nH]c12` [Compound 27, (E)-3-((6-(4-(2-cyanovinyl)-2,6-dimethylphenoxy)-8-oxo-8,9-dihydro-7H-purin-2-yl)amino)bicyclo[1.1.1]pentane-1-carbonitrile], the EC50 in assay [1] was 68.3 nM; in assay [2], 99.4 nM.

Molecule `Cc1cc(/C=C/C#N)cc(C)c1Oc1nc(NC23CC(C#N)(C2)C3)nc2c1CCO2` [Compound 118, (E)-3-((4-(4-(2-cyanovinyl)-2,6-dimethylphenoxy)-5,6-dihydrofuro[2,3-d]pyrimidin-2-yl)amino)bicyclo[1.1.1]pentane-1-carbonitrile] displayed an EC50 in assay [2] of 80.4 nM.

Regarding `CCn1cnc2nc(NC34CC(C#N)(C3)C4)nc(Oc3c(C)cc(/C=C/C#N)cc3C)c21` [Compound 114, (E)-3-((6-(4-(2-cyanovinyl)-2,6-dimethylphenoxy)-7-ethyl-7H-purin-2-yl)amino)bicyclo[1.1.1]pentane-1-carbonitrile], the midpoint of the response in assay [2], the EC50, lay at 51.1 nM.

For the molecule `Cc1nc2nc(NC34CC(C#N)(C3)C4)nc(Oc3c(F)cc(/C=C/C#N)cc3F)c2[nH]1` [Compound 58, (E)-3-((6-(4-(2-cyanovinyl)-2,6-difluorophenoxy)-8-methyl-7H-purin-2-yl)amino)bicyclo[1.1.1]pentane-1-carbonitrile], a half-maximal response in assay [2] (EC50) required 430 nM.

Molecule `Cc1cc(/C=C/C#N)cc(C)c1Oc1nc(NC23CC(C#N)(C2)C3(F)F)nc2[nH]nc(C)c12` [Compound 77, (E)-3-((4-(4-(2-cyanovinyl)-2,6-dimethylphenoxy)-3-methyl-1H-pyrazolo[3,4-d]pyrimidin-6-yl)amino)-2,2-difluorobicyclo[1.1.1]pentane-1-carbonitrile] gave an EC50 in assay [2] of 28.2 nM.

In turn, `Cc1cc(/C=C/C#N)cc(C)c1Oc1nc(NC23CC(CC(F)F)(C2)C3)nc2nc[nH]c12` [Compound 155, (E)-3-(4-((2-((3-(2,2-difluoroethyl)bicyclo[1.1.1]pentan-1-yl)amino)-7H-purin-6-yl)oxy)-3,5-dimethylphenyl)acrylonitrile] yielded an EC50 in assay [2] of 419 nM.

In the case of `Cc1cc(/C=C/C#N)cc(C)c1Oc1nc(NC23CC(C#N)(C2)C3)nc2ncsc12` [Compound 75, (E)-3-((7-(4-(2-cyanovinyl)-2,6-dimethylphenoxy)thiazolo[4,5-d]pyrimidin-5-yl)amino)bicyclo[1.1.1]pentane-1-carbonitrile], the EC50 in assay [2] stood at 55 nM.

Molecule `COC(=O)N1Cc2nc(NC34CC(C#N)(C3)C4)nc(Oc3c(C)cc(/C=C/C#N)cc3C)c2C1` [Compound 151, (E)-methyl 2-((3-cyanobicyclo[1.1.1]pentan-1-yl)amino)-4-(4-(2-cyanovinyl)-2,6-dimethylphenoxy)-5H-pyrrolo[3,4-d]pyrimidine-6(7H)-carboxylate] registered an EC50 in assay [2] of 76 nM.

In assay [2], `Cc1cc(/C=C/C#N)cc(C)c1Oc1nc(NC23CC(C#N)(C2)C3)nc2nc(C(C)(F)F)n(C)c12` [Compound 41, (E)-3-((6-(4-(2-cyanovinyl)-2,6-dimethylphenoxy)-8-(1,1-difluoroethyl)-7-methyl-7H-purin-2-yl)amino)bicyclo[1.1.1]pentane-1-carbonitrile] came in with an EC50 of 77.6 nM.

For the molecule `Cc1nc2nc(NC34CC(C#N)(C3)C4)nc(Oc3c(Cl)cc(/C=C/C#N)cc3Cl)c2[nH]1` [Compound 59, (E)-3-((6-(2,6-dichloro-4-(2-cyanovinyl)phenoxy)-8-methyl-7H-purin-2-yl)amino)bicyclo[1.1.1]pentane-1-carbonitrile], a half-maximal response in assay [2] (EC50) required 336 nM.

In assay [1], `Cc1cc(/C=C/C#N)cc(C)c1Oc1nc(NC23CC(C#N)(C2)C3)nc2c1C(C)N(C(C)C)C2=O` (stereo not shown) [Example 206, (E)-3-((4-(4-(2-cyanovinyl)-2,6-dimethylphenoxy)-6-isopropyl-5-methyl-7-oxo-6,7-dihydro-5H-pyrrolo[3,4-d]pyrimidin-2-yl)amino)bicyclo[1.1.1]pentane-1-carbonitrile] registered a 50% effective concentration (EC50) of 280 nM.

`Cc1cc(/C=C/C#N)cc(C)c1Oc1nc(NC23CC(C#N)(C2)C3)nc2c1C(C)N(Cc1ccnn1C)C2=O` (stereo not shown) [Example 212, (E)-3-((4-(4-(2-cyanovinyl)-2,6-dimethylphenoxy)-5-methyl-6-((1-methyl-1H-pyrazol-5-yl)methyl)-7-oxo-6,7-dihydro-5H-pyrrolo[3,4-d]pyrimidin-2-yl)amino)bicyclo[1.1.1]pentane-1-carbonitrile] registered an EC50 in assay [1] of 47.1 nM.

In assay [2], `Cc1cc(/C=C/C#N)cc(C)c1Oc1nc(NC23CC(C#N)(C2)C3)nc2c1COC2` [Compound 117] came in with an EC50 of 23.9 nM.

`Cc1cc(/C=C/C#N)cc(C)c1Oc1nc(NC23CC(C#N)(C2)C3)nc2c1C(C)N(c1cnn(C)c1C)C2=O` (stereo not shown) [Example 221, (E)-3-((4-(4-(2-cyanovinyl)-2,6-dimethylphenoxy)-6-(1,5-dimethyl-1H-pyrazol-4-yl)-5-methyl-7-oxo-6,7-dihydro-5H-pyrrolo[3,4-d]pyrimidin-2-yl)amino)bicyclo[1.1.1]pentane-1-carbonitrile] showed an EC50 in assay [1] of 72.9 nM.

`Cc1cc(/C=C/C#N)cc(C)c1Oc1nc(NC23CC(C#N)(C2)C3)nc2c(C)nn(C)c12` [Compound 121] displayed an EC50 in assay [1] of 53.2 nM.

The EC50 is the concentration giving half of the maximal effect. The low end stands for an effect from little substance, the high end for a need for much substance.
